Measured values reported in patent US20110105397A1, “METHOD FOR TREATING HEART FAILURE WITH STRESSCOPIN-LIKE PEPTIDES” (priority 2009, published 2011).
Where two headings read alike, the source gives them in different places.

How the values were obtained:
h-CRHR1 = molecular target: T1, h-CRHR1 (Homo sapiens, UniProt P34998); conditions: h-CRHR1 transfected HEK-293 cells, approximated values from concentration response curves (Hsu et al., 2001); cited from earlier work
T1 sequence (P34998 24-415): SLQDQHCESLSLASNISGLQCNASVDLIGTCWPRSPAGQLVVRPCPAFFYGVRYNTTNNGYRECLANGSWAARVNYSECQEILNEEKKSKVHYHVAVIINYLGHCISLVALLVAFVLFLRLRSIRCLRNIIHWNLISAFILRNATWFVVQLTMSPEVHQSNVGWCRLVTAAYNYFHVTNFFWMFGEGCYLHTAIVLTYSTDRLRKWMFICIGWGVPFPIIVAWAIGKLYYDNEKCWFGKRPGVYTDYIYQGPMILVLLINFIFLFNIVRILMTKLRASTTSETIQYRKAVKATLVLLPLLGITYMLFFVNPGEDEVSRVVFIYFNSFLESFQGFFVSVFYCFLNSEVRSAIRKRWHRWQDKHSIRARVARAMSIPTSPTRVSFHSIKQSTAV

[1] = test system: anaesthetized male Sprague-Dawley rats; assay: Hemodynamics in anaesthetized rats (IV bolus); assay type: in vivo, rat; conditions: IV bolus 0.13 μg/kg to 44 μg/kg
Experimental: The hemodynamic profile of h-SCP (SEQ ID NO:1) was determined in sodium pentobarbital anaesthetized male Sprague-Dawley rats (FIG. 10). A SPR-320 Mikro-Tip® integrated catheter-tipped micro-manometer (Millar Instruments, Houston, Tex., U.S.A.) was placed in the right femoral artery for blood pressure measurements, and another one directly in the left ventricle for LV pressure measurement. […] The changes in hemodynamic parameters induced by h-SCP (SEQ ID NO:1, full circle in FIG. 10) were blocked by pretreatment with anti-sauvagine-30 (SEQ ID NO:118, open circle in FIG. 10).

[2] = Nonclinical pharmacokinetics in dogs; design: species or system dog; conditions: in vivo; for Cmax: read-out: Cmax
Experimental: A sandwich immunoassay was developed using an affinity purified goat polyclonal antibody, specific to h-SCP that was pre-coated onto a microplate with integrated electrodes. h-SCP molecules present in the sample will bind to the capture polyclonal antibody coated on the plate. After washing away any unbound substances, a sulfo-tagged mouse monoclonal anti-h-SCP antibody was added. This conjugated antibody will bind to the h-SCP molecules captured on the microplate and the quantity of analyte was determined by electrochemiluminescence. The amount of signal generated is directly proportional to the h-SCP concentration in the sample or standard. The standard curve range is 3.125-1600 pg/mL with a quantifiable range from 10-800 pg/mL. A sample volume of 25 μL (in duplicate) is required for this assay. This immunoassay is specific for human and dog stresscopin and human urocortin III (h-UCN3). […] After completion of the analysis, based on a comparison of reference standards between the ELISA and HPLC method, a correction factor of 1.57 was applied to all bioanalytical data.
The nonclinical pharmacokinetics of h-SCP (SEQ ID NO:1) and pegylated stresscopin-like peptides were studied in rats, dogs, and cynomolgus monkeys (cyno). Nonclinical pharmacokinetic studies focused on characterization of IV infusion at pharmacologically relevant dose levels, supplemented with IV and SC bolus and toxicokinetic analysis.

[3] = Human pharmacokinetics, heart failure subjects, 7.5-hour continuous ascending dose IV infusion; conditions: in vivo; for Tmax: median
Experimental: In heart failure subjects following a 7.5-hour continuous ascending dose IV infusion of h-SCP (SEQ ID NO:1) noncompartmental pharmacokinetic analyses were performed on plasma concentrations of h-SCP (SEQ ID NO:1). The pharmacokinetics of h-SCP (SEQ ID NO:1) in heart failure subjects appeared to be similar to that of healthy subjects. […] Within 30 minutes, plasma h-SCP (SEQ ID NO:1) was reduced to equal or less than 20% of the h-SCP (SEQ ID NO:1) level at the end of the infusion (FIG. 16B).

[4] = male, dog IV infusion 3 hours, M, 3.33 ng/kg/min
[5] = male, dog IV infusion 3 hours, M, 8.33 ng/kg/min
[6] = male, dog IV infusion 3 hours, M, 16.7 ng/kg/min
[7] = male, dog IV infusion 3 hours, M, 33.3 ng/kg/min
[8] = infusion rate 1/3/9 ng/kg/min, mean, N = 2
[9] = infusion rate 3/9/18 ng/kg/min, mean, N = 2
[10] = infusion rate 3/18/54 ng/kg/min, mean, N = 2

Q: For “H-HPGSRIVLSLDVPIGLLQILLEQARARAAREQATTNARILARV-NH2 [SEQ ID NO: 117, HPGSRIVLSLDVPIGLLQILLEQARARAAREQATTNARILARV-NH2, reference compound]”, which “Published pA50” value (h-CRHR1) is on record?
A: >7^3

Q: What does the source list for “H-TKFTLSLDVPTNIMNLLFNIAKAKNLRAQAAANAHLMAQI-NH2 [SEQ ID NO: 1, TKFTLSLDVPTNIMNLLFNIAKAKNLRAQAAANAHLMAQI-NH2]”?
A: hemodynamic profile [1]: dose-dependent increases in heart rate, LV developed pressure (+dP/dt), and a corresponding decrease in blood pressure; half-life ([2]; dog, dogs, two-compartment analysis, read-out: alpha-phase half-life (t1/2 alpha)): 0.167 to 0.333 h; half-life ([2]; dog, dogs, read-out: terminal phase half-life (converted)): ~1 h; time to apparent steady-state plasma concentration after initiation of infusion ([2]; dog, iv): ≤ 1 h; clearance ([2]; dog, dogs, 3.3 to 33.3 ng/kg/min, read-out: plasma clearance): ~4 mL/min/kg; half-life ([2]; male, dog, iv, 33.3 ng/kg/min, dog IV infusion 3 hours, M, 33.3 ng/kg/min, read-out: t1/2 alpha): 0.228 h; half-life ([2]; male, dog, iv, 33.3 ng/kg/min, dog IV infusion 3 hours, M, 33.3 ng/kg/min, read-out: t1/2 terminal): 1.09 h; Vd ([2]; male, dog, iv, Vss): 0.216 L/kg; half-life ([2]; male, dog, iv, t1/2 alpha): 0.265 h; half-life ([2]; male, dog, iv, t1/2 terminal): 0.993 h; AUC(0-inf) [2, 4]: 2.34 ng·h/mL; clearance ([2]; male, dog IV infusion 3 hours, M, 3.33 ng/kg/min, read-out: CL): 4.28 mL/min/kg; Cmax [2, 4]: 0.814 ng/mL; AUC(0-inf) [2, 5]: 6.46 ng·h/mL; clearance ([2]; male, dog IV infusion 3 hours, M, 8.33 ng/kg/min, read-out: CL): 3.87 mL/min/kg; Cmax [2, 5]: 2.38 ng/mL; AUC(0-inf) [2, 6]: 12.8 ng·h/mL; clearance ([2]; male, dog IV infusion 3 hours, M, 16.7 ng/kg/min, read-out: CL): 3.99 mL/min/kg; Cmax [2, 6]: 5.05 ng/mL; AUC(0-inf) [2, 7]: 26.4 ng·h/mL; clearance ([2]; male, dog IV infusion 3 hours, M, 33.3 ng/kg/min, read-out: CL): 3.95 mL/min/kg; Cmax [2, 7]: 10 ng/mL; Vd ([2]; male, dog IV infusion 3 hours, M, 33.3 ng/kg/min, read-out: Vss): 0.161 L/kg; AUC(0-inf) ([3]; infusion rate 0.3/1/3 ng/kg/min, N = 1): 3.4 ng·h/mL; clearance ([3]; infusion rate 0.3/1/3 ng/kg/min, N = 1, read-out: CL (converted)): 3.17 mL/min/kg; Cmax ([3]; infusion rate 0.3/1/3 ng/kg/min, mean, N = 2): 0.826 ng/mL; Tmax ([3]; infusion rate 0.3/1/3 ng/kg/min, N = 2): 6.25 h; AUC(0-inf) [3, 8]: 6.72 ng·h/mL; Cmax [3, 8]: 1.98 ng/mL; clearance ([3]; infusion rate 1/3/9 ng/kg/min, mean, N = 2, read-out: CL (converted)): 5.33 mL/min/kg; Tmax ([3]; infusion rate 1/3/9 ng/kg/min, N = 2): 7.04 h; AUC(0-inf) [3, 9]: 19 ng·h/mL; Cmax [3, 9]: 4.77 ng/mL; clearance ([3]; infusion rate 3/9/18 ng/kg/min, mean, N = 2, read-out: CL (converted)): 4 mL/min/kg; Tmax ([3]; infusion rate 3/9/18 ng/kg/min, N = 2): 6.75 h; AUC(0-inf) [3, 10]: 24.9 ng·h/mL; Cmax [3, 10]: 6.41 ng/mL; clearance ([3]; infusion rate 3/18/54 ng/kg/min, mean, N = 2, read-out: CL (converted)): 7.67 mL/min/kg; Tmax ([3]; infusion rate 3/18/54 ng/kg/min, N = 2): 6.04 h; AUC(0-inf) ([3]; infusion rate 9/18/36 ng/kg/min, mean, N = 2): 33.8 ng·h/mL; clearance ([3]; infusion rate 9/18/36 ng/kg/min, mean, N = 2, read-out: CL (converted)): 5.5 mL/min/kg; half-life ([3]; infusion rate 9/18/36 ng/kg/min, mean, N = 2, read-out: T1/2, effective (converted)): 3.95 h; Cmax ([3]; infusion rate 9/18/36 ng/kg/min, mean, N = 3): 5.52 ng/mL; Tmax ([3]; infusion rate 9/18/36 ng/kg/min, N = 3): 7.48 h; AUC(0-inf) ([3]; infusion rate 18/36/45 ng/kg/min, N = 1): 51.5 ng·h/mL; clearance ([3]; infusion rate 18/36/45 ng/kg/min, N = 1, read-out: CL (converted)): 4.83 mL/min/kg; Cmax ([3]; infusion rate 18/36/45 ng/kg/min, mean, N = 2): 8.04 ng/mL; Tmax ([3]; infusion rate 18/36/45 ng/kg/min, N = 2): 7.34 h; clearance ([3]; read-out: Mean systemic clearance): 3.17 to 7.67 mL/min/kg; half-life ([3]; read-out: Mean terminal half-life): 0.24 to 7.04 h; half-life ([3]; read-out: effective half-life): 1.32 to 2.51 h
